Test systems include SK-MEL-5; CCRF-CEM; OVCAR-3; EKVX; MDA-MB-435; SNB-19; SK-OV-3; M14; SK-MEL-28; UACC-257; TK-10; Malme-3M; SN12C; A549; SNB-75; NCI-H522; IGROV-1; ACHN; A498; HOP-92.
Holding throughout (test): growth of human tumour cells (NCI), 48 h

Molecules are shown by their SMILES.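 Values below derive from 48-hour exposures of cells grown in 96-well plates, with endpoints linearly interpolated between the two concentrations bracketing the appropriate inhibition level. Here, GI50 denotes the concentration required for 50% inhibition of growth.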 The source made the active and inactive calls. Cut-off read from the data, not from the text of the source: active = GI50 up to about 1.1 µM and inactive = higher.

As for `CCOP(=O)(OCC)OC1c2[nH]ccc2-c2cc(C(=O)OC)[nH]c2C1OC` (stereo unspecified), the GI50 in the experiment with SK-MEL-5 was 38.5 µM (inactive); with CCRF-CEM it was > 100 µM (inactive); with OVCAR-3, > 100 µM (inactive); with EKVX it was > 100 µM (inactive); in the experiment on MDA-MB-435 it was 77.4 µM (inactive); in the experiment on SNB-19 it was > 100 µM (inactive). Further, the GI50 with SK-OV-3 is > 100 µM (inactive); in the experiment with M14, > 100 µM (inactive); in the experiment on SK-MEL-28, 82 µM (inactive); with UACC-257, > 100 µM (inactive); in the experiment with TK-10, 73.6 µM (inactive); with Malme-3M, > 100 µM (inactive). For the same compound, the GI50 is > 100 µM (inactive) in the experiment on SN12C; > 100 µM (inactive) in the experiment on A549; 89.3 µM (inactive) in the experiment on SNB-75; > 100 µM (inactive) in the experiment on NCI-H522; > 100 µM (inactive) in the experiment on IGROV-1; > 100 µM (inactive) with ACHN.

For the compound `COc1cc([C@@H]2c3cc4c(cc3[C@@H](NCc3cccc(C#N)c3)C3COC(=O)[C@@H]32)OCO4)cc(OC)c1O` (stereo partly specified), the GI50 with SK-MEL-5 was 2.02 µM (inactive); with CCRF-CEM it was 0.224 µM (active); in the experiment with OVCAR-3, 2.57 µM (inactive); in the experiment with EKVX it was 2.39 µM (inactive); with SNB-19 it was 1.1 µM (active); in the experiment with A498, 1.43 µM (inactive). Further, the GI50 in the experiment on SK-OV-3 was 1.53 µM (inactive); in the experiment on M14, 1.64 µM (inactive); in the experiment on HOP-92, 1.32 µM (inactive); with SK-MEL-28, 3.32 µM (inactive); with UACC-257, 6.64 µM (inactive); in the experiment on TK-10 it was 2.39 µM (inactive). Moreover, the GI50 is 2.18 µM (inactive) in the experiment on Malme-3M; 0.448 µM (active) in the experiment with SN12C; 0.0815 µM (active) in the experiment on A549; 1.06 µM (active) in the experiment on SNB-75; 1.46 µM (inactive) in the experiment on NCI-H522; 1.03 µM (active) with IGROV-1. Also, the GI50 with ACHN is 0.305 µM (active).

With `Cc1cc(=O)n(-c2c(C)cccc2Cl)c(/C=C(\O)c2ccncc2)n1`, the GI50 was 96.4 µM (inactive) in the experiment with SK-MEL-5; > 100 µM (inactive) in the experiment on CCRF-CEM; > 100 µM (inactive) in the experiment with OVCAR-3; > 100 µM (inactive) in the experiment on EKVX; > 100 µM (inactive) in the experiment with SNB-19; > 100 µM (inactive) in the experiment with A498. Also, the GI50 with SK-OV-3 is > 100 µM (inactive); with M14, > 100 µM (inactive); in the experiment with HOP-92, 62.1 µM (inactive); in the experiment with SK-MEL-28, > 100 µM (inactive); with UACC-257 it was > 100 µM (inactive); in the experiment with TK-10, > 100 µM (inactive). The GI50 was > 100 µM (inactive) with Malme-3M; > 100 µM (inactive) in the experiment on SN12C; > 100 µM (inactive) in the experiment with A549; 29.4 µM (inactive) in the experiment on SNB-75; > 100 µM (inactive) with NCI-H522; > 100 µM (inactive) with IGROV-1. For the same compound, the GI50 in the experiment on ACHN is > 100 µM (inactive).

With `CC1=C(NC(=O)C(=O)NNC(=O)c2ccncc2)C(=O)c2ccccc2C1=O`, the GI50 with SK-MEL-5 was 1.98 µM (inactive); with CCRF-CEM, 20 µM (inactive); in the experiment with OVCAR-3, 4.08 µM (inactive); in the experiment on EKVX it was 13.5 µM (inactive); in the experiment with SNB-19, 17.5 µM (inactive); with A498 it was 23.8 µM (inactive). Besides, the GI50 in the experiment on SK-OV-3 is 28.1 µM (inactive); with M14, 9.84 µM (inactive); in the experiment on HOP-92, 15.5 µM (inactive); with SK-MEL-28, 17.3 µM (inactive); in the experiment on UACC-257, 9.77 µM (inactive); in the experiment on TK-10, 45.2 µM (inactive). Further, the GI50 in the experiment on Malme-3M was 5.26 µM (inactive); in the experiment on SN12C, 11.8 µM (inactive); in the experiment on A549 it was 13.6 µM (inactive); with SNB-75 it was 17.4 µM (inactive); in the experiment on NCI-H522 it was 12.4 µM (inactive); with IGROV-1, 12.7 µM (inactive). Besides, the GI50 in the experiment with ACHN was 16.1 µM (inactive).

In the case of `CCCCOC(=O)/C(CC(=O)C=C(C)C)=N\NS(=O)(=O)c1ccc(C)cc1`, the GI50 with SK-MEL-5, in the experiment on CCRF-CEM, with OVCAR-3, in the experiment on EKVX, in the experiment with SNB-19 and with A498 was > 100 µM (inactive) in each case. In addition, the GI50 in the experiment on SK-OV-3, in the experiment on M14, in the experiment with HOP-92, in the experiment with SK-MEL-28, in the experiment on UACC-257 and with TK-10 was > 100 µM (inactive) in each case. In addition, the GI50 with Malme-3M was > 100 µM (inactive); in the experiment on SN12C, > 100 µM (inactive); in the experiment on A549, > 100 µM (inactive); in the experiment with SNB-75, > 100 µM (inactive); with NCI-H522, 41.8 µM (inactive); in the experiment on IGROV-1 it was > 100 µM (inactive). In addition, in the experiment on ACHN, the GI50 is > 100 µM (inactive).

For the compound `CCC1(c2ccc(OC)c(OC)c2)CCN2C(=O)C(O)CC21` (stereo unspecified), the GI50 in the experiment on SK-MEL-5, in the experiment with CCRF-CEM, with OVCAR-3, in the experiment with EKVX, with MDA-MB-435 and in the experiment with SNB-19 was > 100 µM (inactive) throughout. For the same compound, the GI50 with SK-OV-3, in the experiment with M14, in the experiment with SK-MEL-28, in the experiment on UACC-257, in the experiment on TK-10 and with SN12C was > 100 µM (inactive) throughout. Besides, the GI50 with A549, in the experiment on SNB-75, in the experiment with NCI-H522, with IGROV-1 and in the experiment on ACHN was > 100 µM (inactive) in each case.

In the case of `CC(=O)N1CC2Nc3ccccc3C2CC1CO` (stereo unspecified), the GI50 in the experiment on SK-MEL-5, with CCRF-CEM, with OVCAR-3, with EKVX, in the experiment on SNB-19 and in the experiment with A498 was > 100 µM (inactive) in each case. Moreover, the GI50 with SK-OV-3, with M14, with HOP-92, with SK-MEL-28, in the experiment on UACC-257 and in the experiment with TK-10 was > 100 µM (inactive) each time. The GI50 in the experiment with Malme-3M was > 100 µM (inactive); with SN12C, > 100 µM (inactive); in the experiment on A549, > 100 µM (inactive); in the experiment on SNB-75 it was 17.7 µM (inactive); in the experiment with NCI-H522 it was > 100 µM (inactive); with IGROV-1 it was > 100 µM (inactive). Moreover, the GI50 in the experiment with ACHN was > 100 µM (inactive).

With `[N-]=[N+]=C1C(=O)C2CC3CC(C2)CC1C3`, the GI50 with SK-MEL-5, in the experiment with CCRF-CEM, in the experiment on OVCAR-3, in the experiment with EKVX, in the experiment on SNB-19 and with A498 was > 100 µM (inactive) in each case. Further, the GI50 in the experiment with SK-OV-3, in the experiment on M14, in the experiment with HOP-92, with SK-MEL-28, with UACC-257 and with TK-10 was > 100 µM (inactive) each time. Besides, the GI50 in the experiment with Malme-3M, in the experiment with SN12C, in the experiment on A549, in the experiment with SNB-75, in the experiment with NCI-H522 and in the experiment with IGROV-1 was > 100 µM (inactive) in each case. Also, the GI50 in the experiment on ACHN was > 100 µM (inactive).

With `CCCNC(=O)C1C(=O)C(=O)N(CCC)C1=O` (stereo unspecified), the GI50 with SK-MEL-5, in the experiment with CCRF-CEM, in the experiment on OVCAR-3, in the experiment with EKVX, in the experiment with SNB-19 and in the experiment on A498 was > 100 µM (inactive) each time. Besides, the GI50 with SK-OV-3, in the experiment with M14, in the experiment on HOP-92, in the experiment with SK-MEL-28, with UACC-257 and in the experiment with TK-10 was > 100 µM (inactive) throughout. Moreover, the GI50 in the experiment with Malme-3M, in the experiment on SN12C, in the experiment with A549, in the experiment on SNB-75, with NCI-H522 and in the experiment on IGROV-1 was > 100 µM (inactive) each time. In the experiment with ACHN, the GI50 was > 100 µM (inactive).

For `CC1=C2C(=CC(C)(CO)C2O)C(=O)C(C)(O)C12CC2` (stereo unspecified), the GI50 was 0.00108 µM (active) in the experiment on SK-MEL-5; 0.00201 µM (active) in the experiment on CCRF-CEM; 0.00493 µM (active) in the experiment with OVCAR-3; 0.0103 µM (active) with EKVX; 0.00474 µM (active) in the experiment with SNB-19; 0.00716 µM (active) in the experiment on A498. The GI50 in the experiment on SK-OV-3 was 0.005 µM (active); in the experiment with M14, 0.00327 µM (active); with HOP-92, 0.00255 µM (active); with SK-MEL-28, 0.00425 µM (active); in the experiment on UACC-257, 0.00249 µM (active); in the experiment with TK-10, 0.00719 µM (active). In addition, the GI50 is 0.00361 µM (active) with Malme-3M; 0.00705 µM (active) in the experiment on SN12C; 0.00254 µM (active) with A549; 0.00395 µM (active) in the experiment with SNB-75; 0.000776 µM (active) in the experiment on NCI-H522; 0.00721 µM (active) with IGROV-1. In addition, the GI50 in the experiment on ACHN was 0.00152 µM (active).

Consider `O=c1c(O)c(-c2ccc(O)c(O)c2)oc2cc(O)ccc12` [FISETIN], for which the GI50 in the experiment on SK-MEL-5 is 13.1 µM (inactive); in the experiment with CCRF-CEM it was 8.99 µM (inactive); with OVCAR-3 it was 19.9 µM (inactive); in the experiment with EKVX, 25.4 µM (inactive); with SNB-19, 10.7 µM (inactive); in the experiment on A498, 26.3 µM (inactive). Besides, the GI50 with SK-OV-3 is 9.66 µM (inactive); in the experiment on M14, 18.2 µM (inactive); with HOP-92 it was 28.2 µM (inactive); in the experiment with SK-MEL-28, 21.7 µM (inactive); with UACC-257 it was 22.3 µM (inactive); with TK-10 it was 29.7 µM (inactive). Further, the GI50 with Malme-3M is 20.4 µM (inactive); with SN12C it was 20.8 µM (inactive); in the experiment with A549, 30.3 µM (inactive); with SNB-75 it was 5.27 µM (inactive); in the experiment with NCI-H522, 13.6 µM (inactive); with IGROV-1, 18.6 µM (inactive). For the same compound, the GI50 with ACHN was 18.7 µM (inactive).

The values are drawn from ChEMBL document CHEMBL1201862, “PubChem BioAssay data set” (2004).
